Results published in ChEMBL document CHEMBL1201862, “PubChem BioAssay data set” (2004).
Values joined by “and” are separate entries in the source; they are usually repeats but may differ in a detail not shown here. Equal entries are not always repeated. Active and inactive are the calls of the source.

Tests used:
[1] = cytotoxicity in OVCAR8 ovarian cancer cells, dose response, PAX8 project, cell-based, plate reader, dry powder samples (AID 743197); type: functional; conditions: OVCAR-8
Paired box protein Pax-8 = Paired box protein Pax-8 (Homo sapiens, UniProt Q06710); assay: inhibitors of PAX8-driven TPO luciferase reporter, dose response, RMG-I cells, cherry-pick (AID 687027); type: functional, cell-based;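 note: luciferase reporter driven by Pax8 target thyroperoxidase promoter measured by SteadyGlo luminescence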
[2] = A2780 ovarian cancer cell cytotoxicity, dose response, cytotoxicity control, plate reader, dry powder samples (AID 743046); type: functional, cell-based
Kallikrein-7 = Kallikrein-7 (Homo sapiens, UniProt P49862); assay: Fluorescence Intensity-based biochemical primary high throughput dose response assay to identify activators of kallikrein-7 (K7) zymogen.
Vasopressin V2 receptor = Vasopressin V2 receptor (Homo sapiens, UniProt P30518); assay: Late-stage results from the probe development effort to identify antagonists of arginine vasopressin receptor 1a (AVPR1a): fluorescence-based cell-based dose response AVPR2 inhibition counterscreen assay.; type: functional
[3] = Late-stage results from the probe development effort to identify antagonists of arginine vasopressin receptor 1a (AVPR1a): fluorescence-based cell-based dose response AVPR1a inhibition assay.; type: functional
Vasopressin V1b receptor = Vasopressin V1b receptor (Homo sapiens, UniProt P47901); assay: Late-stage results from the probe development effort to identify antagonists of arginine vasopressin receptor 1a (AVPR1a): fluorescence-based cell-based dose response AVPR1b inhibition counterscreen assay.; type: functional
[4] = Late-stage results from the probe development effort to identify antagonists of arginine vasopressin receptor 1a (AVPR1a): fluorescence-based cell-based dose response OXTR inhibition counterscreen assay.; type: functional
[5] = T. cruzi growth inhibition in host cells, dose response, cell-based, plate reader, dry powder, set 2 (AID 652275); type: functional
[6] = NIH/3T3 fibroblast cytotoxicity, dose response, cytotoxicity control, cell-based, plate reader, dry powder, set 2 (AID 652280); type: functional; conditions: NIH3T3
HEK293 [7] = assay: cells; conditions: Homo sapiens
[8] = ADAM10 inhibitors, peptide cleavage, dose response, biochemical, QFRET (AID 743254);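 note: ADAM10 enzyme with the DM2 quenched FRET peptide as substrate; EDANS fluorescence gain as the protease cuts the substrate; inhibitor potency against ADAM10 proteolytic activity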
[9] = target: Disintegrin and metalloproteinase domain-containing protein 17 (Homo sapiens, UniProt P78536); assay: ADAM17 protease inhibitors, dose response, counter-screen for ADAM10 exosite inhibitor project, biochemical, quenched FRET substrate (AID 743253)
HEK293 [10] = assay: cells; conditions: Homo sapiens; remark: listed apart in the source
[11] = non-specific cell cytotoxicity, dose response, cytotoxicity control for PAX8 inhibitor project, plate reader, dry powder samples (AID 743021); type: functional, cell-based
[12] = NIH:OVCAR-3 ovarian cancer cell cytotoxicity, dose response, PAX8 inhibitor project, plate reader, dry powder samples (AID 743044); type: functional, cell-based
HEK293 [13] = assay: cells; type: functional, cell-based; conditions: Homo sapiens
HEK293 [14] = assay: NOD1 signaling inhibitors, primary screen, cell-based, luminescence, uHTS (AID 1578); type: functional; conditions: Homo sapiens
HEK293 [15] = assay: NOD2 signaling inhibitors in MDP-stimulated cells, cell-based, uHTS, luminescence (AID 2001); type: functional; conditions: Homo sapiens
HEK293 [16] = assay: cells; conditions: Homo sapiens; remark: listed apart in the source
HEK293 [17] = assay: cells; type: functional, cell-based; conditions: Homo sapiens; remark: listed apart in the source
Tumor necrosis factor = Tumor necrosis factor (Homo sapiens, UniProt P01375); assay: TNFa-triggered NF-kB activation inhibitors, SAR follow-up, cell-based, revised (AID 2337); type: functional
[18] = target: T1, Nucleotide-binding oligomerization domain-containing protein 1 (Homo sapiens, UniProt Q9Y239); assay: NOD1 signaling inhibitors, SAR follow-up, revised (AID 2333); type: functional
T1 sequence (Q9Y239 whole entry): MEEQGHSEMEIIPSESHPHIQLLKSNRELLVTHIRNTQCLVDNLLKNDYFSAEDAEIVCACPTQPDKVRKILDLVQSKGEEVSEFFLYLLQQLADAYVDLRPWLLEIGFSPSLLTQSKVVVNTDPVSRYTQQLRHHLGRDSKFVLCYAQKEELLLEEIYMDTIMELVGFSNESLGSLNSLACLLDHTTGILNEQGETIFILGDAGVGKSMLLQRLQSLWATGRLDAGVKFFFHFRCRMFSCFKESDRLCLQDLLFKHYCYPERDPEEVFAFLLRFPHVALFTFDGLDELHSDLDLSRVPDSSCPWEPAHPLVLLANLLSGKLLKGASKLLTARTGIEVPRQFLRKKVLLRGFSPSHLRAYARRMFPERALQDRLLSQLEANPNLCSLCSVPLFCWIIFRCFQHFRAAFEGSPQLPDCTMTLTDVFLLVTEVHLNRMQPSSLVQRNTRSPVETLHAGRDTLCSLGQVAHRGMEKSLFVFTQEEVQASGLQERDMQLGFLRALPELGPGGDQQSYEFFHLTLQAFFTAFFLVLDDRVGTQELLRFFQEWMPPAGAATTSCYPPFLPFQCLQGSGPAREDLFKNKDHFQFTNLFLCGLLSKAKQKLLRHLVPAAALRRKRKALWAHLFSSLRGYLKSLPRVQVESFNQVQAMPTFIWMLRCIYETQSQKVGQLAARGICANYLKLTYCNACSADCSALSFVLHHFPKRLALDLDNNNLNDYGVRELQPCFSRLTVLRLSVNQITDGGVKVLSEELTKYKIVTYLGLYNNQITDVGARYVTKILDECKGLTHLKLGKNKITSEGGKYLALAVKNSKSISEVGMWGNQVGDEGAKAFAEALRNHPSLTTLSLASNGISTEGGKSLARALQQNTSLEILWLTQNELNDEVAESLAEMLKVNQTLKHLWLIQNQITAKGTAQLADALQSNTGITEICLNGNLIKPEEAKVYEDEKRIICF

[19] = HEK293T cytotoxicity, dose response, cytotoxicity control for miR-122 modulator project, cell-based, inhibitor set, cherry-pick, set 2 (AID 720697); type: functional
[20] = HEK293T cytotoxicity, dose response, cytotoxicity control for miR-122 modulator project, cell-based, activator set, cherry-pick (AID 720690); type: functional;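 note: HEK293T human cells scored for general mammalian cytotoxicity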
[21] = target: T2, Short transient receptor potential channel 4 (Mus musculus, UniProt Q9QUQ5); assay: mouse TRPC4 channel activators, dose response, cell-based, HEK293 TRPC4/mu-opioid, Fluo-4 calcium (AID 434937); type: functional
T2 sequence (Q9QUQ5 whole entry): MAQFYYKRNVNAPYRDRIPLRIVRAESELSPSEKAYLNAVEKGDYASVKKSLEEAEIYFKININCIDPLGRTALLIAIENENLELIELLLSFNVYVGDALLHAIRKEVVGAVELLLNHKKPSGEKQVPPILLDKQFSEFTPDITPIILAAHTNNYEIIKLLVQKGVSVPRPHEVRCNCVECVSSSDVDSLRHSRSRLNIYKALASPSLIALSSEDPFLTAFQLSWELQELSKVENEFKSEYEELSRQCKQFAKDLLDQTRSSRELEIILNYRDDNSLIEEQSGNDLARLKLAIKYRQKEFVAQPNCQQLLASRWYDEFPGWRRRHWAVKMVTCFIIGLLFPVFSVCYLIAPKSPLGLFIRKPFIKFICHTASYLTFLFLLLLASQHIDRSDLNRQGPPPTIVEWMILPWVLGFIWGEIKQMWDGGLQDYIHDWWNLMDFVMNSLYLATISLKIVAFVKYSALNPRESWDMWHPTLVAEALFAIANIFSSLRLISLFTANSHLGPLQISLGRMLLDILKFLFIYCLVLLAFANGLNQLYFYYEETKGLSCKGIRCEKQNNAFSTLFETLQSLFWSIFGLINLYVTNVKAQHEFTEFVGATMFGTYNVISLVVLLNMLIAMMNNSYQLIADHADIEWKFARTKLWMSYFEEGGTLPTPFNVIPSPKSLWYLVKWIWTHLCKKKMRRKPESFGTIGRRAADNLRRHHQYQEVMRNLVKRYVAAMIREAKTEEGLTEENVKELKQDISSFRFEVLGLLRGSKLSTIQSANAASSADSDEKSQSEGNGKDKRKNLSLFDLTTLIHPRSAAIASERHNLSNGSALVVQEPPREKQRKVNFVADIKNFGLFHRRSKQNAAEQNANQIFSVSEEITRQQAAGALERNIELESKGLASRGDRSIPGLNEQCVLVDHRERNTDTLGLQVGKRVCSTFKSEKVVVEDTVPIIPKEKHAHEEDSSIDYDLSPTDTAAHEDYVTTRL

[22] = target: T3, Nuclear receptor subfamily 0 group B member 1 (Homo sapiens, UniProt P51843); assay: Luminescence-based cell-based high throughput dose response assay for inhibitors of the orphan nuclear receptor subfamily 0, group B, member 1 (DAX1; NR0B1). [Related pubchem assays (depositor defined):AID504766, AID504790]; type: functional
T3 sequence (P51843 whole entry): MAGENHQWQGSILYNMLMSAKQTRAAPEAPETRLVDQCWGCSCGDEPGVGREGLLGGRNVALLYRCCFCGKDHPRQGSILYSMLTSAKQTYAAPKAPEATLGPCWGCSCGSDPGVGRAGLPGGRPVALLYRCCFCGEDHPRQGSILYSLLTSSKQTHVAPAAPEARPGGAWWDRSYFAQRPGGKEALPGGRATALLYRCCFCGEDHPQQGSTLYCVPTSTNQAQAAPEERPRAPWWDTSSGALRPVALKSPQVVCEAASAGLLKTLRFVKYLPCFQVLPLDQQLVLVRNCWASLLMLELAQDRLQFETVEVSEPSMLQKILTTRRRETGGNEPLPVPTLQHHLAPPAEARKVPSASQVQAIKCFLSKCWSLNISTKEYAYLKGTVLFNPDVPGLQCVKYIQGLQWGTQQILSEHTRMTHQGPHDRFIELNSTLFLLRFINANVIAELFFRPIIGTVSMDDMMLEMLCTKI

[23] = target: T4, Oxysterols receptor LXR-beta (Homo sapiens, UniProt P55055); type: functional, cell-based;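 note: Cell-based luminescence dose-response assay of agonist activity at LXR, run as a confirmatory counterscreen to a daf-12 agonist screen; HEK293 cells with Gal4-LXR fusion and GAL4-driven luciferase reporter; agonist potency from rising luciferase signal of a Gal4-LXR reporter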
T4 sequence (P55055 whole entry): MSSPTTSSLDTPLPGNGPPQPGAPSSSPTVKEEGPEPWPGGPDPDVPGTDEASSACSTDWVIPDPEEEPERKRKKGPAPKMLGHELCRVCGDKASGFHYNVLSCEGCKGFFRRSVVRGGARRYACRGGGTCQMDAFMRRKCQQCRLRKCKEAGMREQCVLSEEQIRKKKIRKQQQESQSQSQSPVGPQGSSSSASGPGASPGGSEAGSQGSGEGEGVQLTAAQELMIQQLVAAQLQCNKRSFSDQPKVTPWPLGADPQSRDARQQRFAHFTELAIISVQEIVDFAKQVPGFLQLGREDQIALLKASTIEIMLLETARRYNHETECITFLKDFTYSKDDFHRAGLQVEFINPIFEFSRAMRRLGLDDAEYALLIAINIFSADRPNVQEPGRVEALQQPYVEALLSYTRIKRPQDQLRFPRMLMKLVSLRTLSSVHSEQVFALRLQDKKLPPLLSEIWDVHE

HEK293 [24] = assay: cells; type: functional, cell-based; conditions: Homo sapiens; remark: listed apart in the source

Chain of Vasopressin V2 receptor (P30518 whole entry): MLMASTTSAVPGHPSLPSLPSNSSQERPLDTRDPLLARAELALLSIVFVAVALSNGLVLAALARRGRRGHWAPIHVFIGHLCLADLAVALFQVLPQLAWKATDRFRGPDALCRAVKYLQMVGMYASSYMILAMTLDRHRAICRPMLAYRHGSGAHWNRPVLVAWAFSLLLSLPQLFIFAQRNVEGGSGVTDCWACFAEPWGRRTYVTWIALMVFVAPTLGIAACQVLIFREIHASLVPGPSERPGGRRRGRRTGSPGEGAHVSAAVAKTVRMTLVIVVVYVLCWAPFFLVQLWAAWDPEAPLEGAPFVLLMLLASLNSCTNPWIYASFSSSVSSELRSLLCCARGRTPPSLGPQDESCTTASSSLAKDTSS
Chain of Paired box protein Pax-8 (Q06710 whole entry): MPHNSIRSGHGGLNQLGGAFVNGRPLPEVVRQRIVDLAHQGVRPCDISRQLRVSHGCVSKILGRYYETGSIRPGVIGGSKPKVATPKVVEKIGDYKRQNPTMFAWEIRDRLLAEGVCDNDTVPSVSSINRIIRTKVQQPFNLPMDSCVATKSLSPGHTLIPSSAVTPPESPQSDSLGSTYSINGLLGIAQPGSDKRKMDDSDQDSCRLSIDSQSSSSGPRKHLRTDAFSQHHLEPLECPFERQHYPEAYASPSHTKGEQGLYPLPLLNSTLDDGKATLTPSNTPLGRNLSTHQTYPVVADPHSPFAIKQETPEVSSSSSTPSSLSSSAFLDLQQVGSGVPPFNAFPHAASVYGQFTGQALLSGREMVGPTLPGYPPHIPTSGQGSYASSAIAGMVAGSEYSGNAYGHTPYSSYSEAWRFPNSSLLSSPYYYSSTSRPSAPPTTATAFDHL
Chain of Tumor necrosis factor (P01375 whole entry, the tested form may be a part): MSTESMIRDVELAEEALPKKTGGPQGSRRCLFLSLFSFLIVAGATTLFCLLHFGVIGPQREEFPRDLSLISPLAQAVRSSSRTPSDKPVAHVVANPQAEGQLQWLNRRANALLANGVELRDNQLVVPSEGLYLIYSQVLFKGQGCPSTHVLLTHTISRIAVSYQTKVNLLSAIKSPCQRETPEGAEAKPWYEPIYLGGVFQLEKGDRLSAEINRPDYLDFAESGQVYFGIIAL
Chain of Kallikrein-7 (P49862 whole entry): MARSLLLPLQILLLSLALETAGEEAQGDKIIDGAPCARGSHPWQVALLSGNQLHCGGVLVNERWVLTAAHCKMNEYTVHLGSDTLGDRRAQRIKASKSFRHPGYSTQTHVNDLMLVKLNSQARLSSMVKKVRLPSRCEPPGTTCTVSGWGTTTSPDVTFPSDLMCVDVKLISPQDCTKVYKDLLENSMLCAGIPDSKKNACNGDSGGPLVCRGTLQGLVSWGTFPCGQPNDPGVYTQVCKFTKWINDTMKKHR
Chain of Disintegrin and metalloproteinase domain-containing protein 17 (P78536 whole entry, the tested form may be a part): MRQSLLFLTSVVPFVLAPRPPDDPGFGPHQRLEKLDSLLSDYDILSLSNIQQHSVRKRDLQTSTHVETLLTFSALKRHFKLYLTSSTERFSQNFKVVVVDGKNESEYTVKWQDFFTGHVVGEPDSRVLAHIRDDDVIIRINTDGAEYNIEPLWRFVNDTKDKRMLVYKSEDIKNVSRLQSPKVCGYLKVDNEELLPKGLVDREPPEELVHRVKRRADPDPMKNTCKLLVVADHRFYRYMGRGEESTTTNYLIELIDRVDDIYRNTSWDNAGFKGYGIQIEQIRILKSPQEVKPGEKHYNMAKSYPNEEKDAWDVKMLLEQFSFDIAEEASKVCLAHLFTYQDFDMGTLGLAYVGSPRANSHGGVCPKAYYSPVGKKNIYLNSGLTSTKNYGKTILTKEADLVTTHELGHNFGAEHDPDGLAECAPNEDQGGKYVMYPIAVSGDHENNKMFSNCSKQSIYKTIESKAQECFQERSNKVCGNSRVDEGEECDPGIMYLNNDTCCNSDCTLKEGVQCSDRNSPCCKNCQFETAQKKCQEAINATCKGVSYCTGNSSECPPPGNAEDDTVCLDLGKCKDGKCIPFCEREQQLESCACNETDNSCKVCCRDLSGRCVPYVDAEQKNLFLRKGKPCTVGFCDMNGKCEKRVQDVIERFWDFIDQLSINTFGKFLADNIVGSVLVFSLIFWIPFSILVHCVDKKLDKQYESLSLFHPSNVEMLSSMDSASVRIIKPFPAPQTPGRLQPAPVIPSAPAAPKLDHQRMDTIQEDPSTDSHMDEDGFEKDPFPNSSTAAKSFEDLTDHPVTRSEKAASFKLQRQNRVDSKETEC
Chain of Vasopressin V1b receptor (P47901 whole entry): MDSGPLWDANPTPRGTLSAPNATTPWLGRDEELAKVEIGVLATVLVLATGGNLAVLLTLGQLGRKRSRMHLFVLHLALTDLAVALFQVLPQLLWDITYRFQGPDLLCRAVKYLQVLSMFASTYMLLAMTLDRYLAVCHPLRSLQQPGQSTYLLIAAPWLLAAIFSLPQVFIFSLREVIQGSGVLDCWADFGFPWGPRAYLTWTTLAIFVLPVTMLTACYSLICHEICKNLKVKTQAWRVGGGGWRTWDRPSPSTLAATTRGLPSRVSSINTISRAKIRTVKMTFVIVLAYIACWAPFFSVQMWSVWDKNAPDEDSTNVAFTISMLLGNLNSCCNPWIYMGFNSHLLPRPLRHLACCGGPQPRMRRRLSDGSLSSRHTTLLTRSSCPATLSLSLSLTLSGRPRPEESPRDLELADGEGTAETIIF

C[C@H](CO)N1C[C@H](C)[C@H](CN(C)S(=O)(=O)c2ccccc2)OCCCC[C@H](C)Oc2ccc(NS(=O)(=O)c3ccc(Cl)cc3)cc2C1=O
AC50 [1]: 3.41 µM (active) | AC50 (Paired box protein Pax-8): 10.1 µM (active) | AC50 [2]: 6.87 µM (active)

COc1ccccc1N(C)S(=O)(=O)c1ccc(C(=O)Nc2ccc(C(N)=O)cc2)cc1
EC50 (Kallikrein-7): 15.8 µM (inactive)

COCCN(C(=O)N1CCN(c2ccccc2C)CC1)c1ccc(OC)cc1
IC50 (Vasopressin V2 receptor): 19.6 µM (inactive) | IC50 [3]: 0.1 µM (active) | IC50 (Vasopressin V1b receptor): 29.3 µM (inactive) | IC50 [4]: 1 µM (active)

O=C(C1CCN(c2ccc(F)cn2)CC1)N(CC1CC1)c1ccc(Cl)cc1
IC50 (Vasopressin V2 receptor): 24.3 µM (inactive) | IC50 [3]: 0.0241 µM (active) | IC50 (Vasopressin V1b receptor): 20.5 µM (inactive) | IC50 [4]: 9 µM (active)

CC(C)N1C[C@@H](CN(C)Cc2ccc(Oc3ccccc3)cc2)Oc2c(NC(=O)c3ccncc3)cccc2C1=O
AC50 [5]: 0.00223 µM (active) | AC50 [6]: 2.36 µM (active)

CC1(Cc2cccc(C#N)c2)C(=O)Nc2ccc(-c3cccc(C(F)(F)F)c3)cc21 (stereo unspecified)
EC50 (HEK293 [7]): > 59.7 µM (inactive) | IC50 [8]: 8.9 µM (active) | IC50 [9]: > 69.5 µM (inactive) | EC50 (HEK293 [10]): > 59.7 µM (inactive)

O=C(Nc1ccc(NC(=O)c2cccs2)cc1)c1cccs1
EC50 (Kallikrein-7): > 69.5 µM (inactive)

Cc1ccccc1-c1ccc2c(c1)O[C@H](CN(C)C(=O)Nc1ccc(C(F)(F)F)cc1)[C@H](C)CN([C@@H](C)CO)S2(=O)=O
AC50 (Paired box protein Pax-8): 9.3 µM (active) | AC50 [2]: < 0.26 µM (active) | AC50 [11]: 44.3 µM (active) | AC50 [12]: 42.5 µM (active)

CCOc1ccc(NC(=O)c2ccc(CN3CCc4ccccc4C3)cc2)cc1
IC50 (HEK293 [13]): > 20 µM (inactive) | IC50 [8]: > 69.5 µM (inactive) | EC50 (HEK293 [14]): 0.79 µM (active) | IC50 (HEK293 [15]): > 20 µM (inactive) | IC50 (HEK293 [16]): > 20 µM (inactive) | IC50 (HEK293 [17]): 3.96 µM (active) | IC50 (Tumor necrosis factor): 6.05 µM (active) and 2.05 µM (active) | IC50 [9]: > 69.5 µM (inactive) | IC50 [18]: 1.79 µM (active) and 1.13 µM (active)

FC(F)(F)c1cnc(N2CCCN(C(S)=Nc3ccccc3)CC2)c(Cl)c1
AC50 [19]: 3.78 µM (active) | AC50 [20]: 26.9 µM (active) | EC50 [21]: 0.421 µM (active)

Cc1ccc(O)c(-c2cc(-c3ccc(F)cc3)no2)c1
IC50 [22]: > 67.5 µM (inactive) | EC50 [23]: > 67.5 µM (inactive) | EC50 (cells): > 67.5 µM (inactive) | IC50 (HEK293 [24]): > 67.5 µM (inactive)

CC(C)N1CC[C@@H](CN(C)Cc2ccc(Oc3ccccc3)cc2)Oc2c(NC(=O)c3ccncc3)cccc2C1=O
AC50 [5]: 0.0195 µM (active) | AC50 [6]: 23.4 µM (active)
